Where two headings read alike, the source gives them in different places.
Legend:
Format in all cases: in vivo
[1] = system: pigweed (Amaranthus retroflexus); assay: Test A postemergence; conditions: Amaranthus retroflexus, post-emergence, 240 h; for pest or weed control at 125 g/ha: 125 g ai/ha, read-out: Pigweed plant response rating (0 to 100 scale); for pest or weed control at 500 g/ha: 500 g ai/ha, visual injury, 0 to 100 scale (0 no effect, 100 complete control), approx. 10 d, read-out: Plant response rating, Pigweed
Procedure, shortened: (§1)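 Treatment is preemergence as a directed soil spray after planting, or postemergence at the one- to two-leaf stage, with test chemical in a non-phytotoxic solvent mixture plus surfactant. Plants stay in the greenhouse about 10 d before visual injury scoring on a 0 to 100 scale versus untreated controls.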

[2] = system: Galium (catchweed bedstraw, Galium aparine); assay: Test A postemergence; conditions: Galium, post-emergence, 240 h; for pest or weed control at 125 g/ha: 125 g ai/ha, read-out: Galium plant response rating (0 to 100 scale); for pest or weed control at 500 g/ha: 500 g ai/ha, visual injury, 0 to 100 scale (0 no effect, 100 complete control), approx. 10 d, read-out: Plant response rating, Galium
Procedure, shortened: as §1

[3] = system: corn (Zea mays); assay: Test A postemergence; conditions: Zea mays, post-emergence, 240 h; for plant injury at 125 g/ha: 125 g ai/ha, read-out: Corn plant response rating (0 to 100 scale); for Corn plant response rating (crop injury, 0 = no effect, 100 = complete kill) at 500 g/ha: 500 g ai/ha, visual injury, 0 to 100 scale (0 no effect, 100 complete control), approx. 10 d
Procedure, shortened: as §1

[4] = system: Kochia (Kochia scoparia); assay: Test A postemergence; conditions: Bassia scoparia, post-emergence, 240 h; for pest or weed control at 125 g/ha: 125 g ai/ha, read-out: Kochia plant response rating (0 to 100 scale); for pest or weed control at 500 g/ha: 500 g ai/ha, visual injury, 0 to 100 scale (0 no effect, 100 complete control), approx. 10 d, read-out: Plant response rating, Kochia
Procedure, shortened: as §1

[5] = system: ducksalad (Heteranthera limosa); assay: Test B flooded paddy test; conditions: Heteranthera limosa, Flood, 250 g ai/ha
Procedure, shortened: (§2)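 Rating scale 0–100 (visual, vs untreated controls) after a 13–15 d greenhouse period; application to the flood layer, 3 cm above soil and maintained; plants at 2-leaf stage when treated.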

[6] = system: barnyardgrass (Echinochloa crus-galli); assay: Test B flooded paddy test; conditions: Echinochloa crus-galli, Flood, 250 g ai/ha
Procedure, shortened: as §2

[7] = system: sedge, umbrella (small-flower umbrella sedge, Cyperus difformis); assay: Test B flooded paddy test; conditions: Cyperus difformis, Flood, 250 g ai/ha
Procedure, shortened: as §2

[8] = system: rice (Oryra sativa); assay: Test B flooded paddy test; conditions: Oryza sativa, Flood, 250 g ai/ha
Procedure, shortened: as §2

[9] = system: giant foxtail (Setaria faberii); assay: Test A preemergence; conditions: Setaria faberi, pre-emergence, 240 h; for pest or weed control at 500 g/ha: 500 g ai/ha; for pest or weed control at 125 g/ha: 125 g ai/ha
Procedure, shortened: as §1

[10] = system: barnyardgrass (Echinochloa crus-galli); assay: Test A preemergence; conditions: Echinochloa crus-galli, pre-emergence, 240 h; for pest or weed control at 500 g/ha: 500 g ai/ha; for pest or weed control at 125 g/ha: 125 g ai/ha
Procedure, shortened: as §1

[11] = system: ryegrass, Italian (Italian ryegrass, Lolium multiflorum); assay: Test A preemergence; conditions: Lolium multiflorum, pre-emergence, 240 h; for pest or weed control at 500 g/ha: 500 g ai/ha; for pest or weed control at 125 g/ha: 125 g ai/ha
Procedure, shortened: as §1

[12] = system: pigweed (Amaranthus retroflexus); assay: Test A preemergence; conditions: Amaranthus retroflexus, pre-emergence, 240 h; for pest or weed control at 500 g/ha: 500 g ai/ha; for pest or weed control at 125 g/ha: 125 g ai/ha
[13] = system: Kochia (Kochia scoparia); assay: Test A preemergence; conditions: Bassia scoparia, pre-emergence, 240 h; for pest or weed control at 500 g/ha: 500 g ai/ha; for pest or weed control at 125 g/ha: 125 g ai/ha
Procedure, shortened: as §1

[14] = system: ragweed (common ragweed, Ambrosia elatior); assay: Test A preemergence; conditions: Ambrosia artemisiifolia, pre-emergence, 240 h; for pest or weed control at 500 g/ha: 500 g ai/ha; for pest or weed control at 125 g/ha: 125 g ai/ha
Procedure, shortened: as §1

[15] = Postemergence, visual rating about 10 d after treatment
[16] = 0 to 100 scale where 0 is no effect and 100 is complete control, read-out: Ducksalad plant response rating
[17] = 0 to 100 scale where 0 is no effect and 100 is complete control, read-out: Barnyardgrass plant response rating
[18] = 0 to 100 scale where 0 is no effect and 100 is complete control, read-out: Sedge, Umbrella plant response rating
[19] = 0 to 100 scale where 0 is no effect and 100 is complete control, read-out: Rice plant response rating
[20] = preemergence, visual injury rating, 0 to 100 scale where 0 is no effect and 100 is complete control, approximately 10 d, read-out: Foxtail, Giant plant response rating
[21] = preemergence, 0 to 100 scale where 0 is no effect and 100 is complete control, read-out: Foxtail, Giant plant response rating
[22] = preemergence, visual injury rating, 0 to 100 scale where 0 is no effect and 100 is complete control, approximately 10 d, read-out: Barnyardgrass plant response rating
[23] = preemergence, 0 to 100 scale where 0 is no effect and 100 is complete control, read-out: Barnyardgrass plant response rating
[24] = preemergence, visual injury rating, 0 to 100 scale where 0 is no effect and 100 is complete control, approximately 10 d, read-out: Ryegrass, Italian plant response rating
[25] = preemergence, 0 to 100 scale where 0 is no effect and 100 is complete control, read-out: Ryegrass, Italian plant response rating
[26] = preemergence, visual injury rating, 0 to 100 scale where 0 is no effect and 100 is complete control, approximately 10 d, read-out: Pigweed plant response rating
[27] = preemergence, 0 to 100 scale where 0 is no effect and 100 is complete control, read-out: Pigweed plant response rating
[28] = preemergence, visual injury rating, 0 to 100 scale where 0 is no effect and 100 is complete control, approximately 10 d, read-out: Kochia plant response rating
[29] = preemergence, 0 to 100 scale where 0 is no effect and 100 is complete control, read-out: Kochia plant response rating
[30] = preemergence, visual injury rating, 0 to 100 scale where 0 is no effect and 100 is complete control, approximately 10 d, read-out: Ragweed plant response rating
[31] = preemergence, 0 to 100 scale where 0 is no effect and 100 is complete control, read-out: Ragweed plant response rating
[32] = postemergence, visual injury vs untreated controls after approx. 10 d, 0 = no effect, 100 = complete control

Row | Compound | pest or weed control at 125 g/ha [1, 15] | pest or weed control at 500 g/ha ([1]; Postemergence) | pest or weed control at 125 g/ha [2, 15] | pest or weed control at 500 g/ha ([2]; Postemergence) | plant injury at 125 g/ha [3, 15] | Corn plant response rating (crop injury, 0 = no effect, 100 = complete kill) at 500 g/ha ([3]; Postemergence) | pest or weed control at 125 g/ha [4, 15] | pest or weed control at 500 g/ha ([4]; Postemergence) | pest or weed control at 250 g/ha [5, 16] | pest or weed control at 250 g/ha [6, 17] | pest or weed control at 250 g/ha [7, 18] | pest or weed control at 250 g/ha [8, 19] | pest or weed control at 125 g/ha [9, 20] | pest or weed control at 500 g/ha [9, 21] | pest or weed control at 125 g/ha [10, 22] | pest or weed control at 500 g/ha [10, 23] | pest or weed control at 125 g/ha [11, 24] | pest or weed control at 500 g/ha [11, 25] | pest or weed control at 125 g/ha [12, 26] | pest or weed control at 500 g/ha [12, 27] | further results
1 | CN1C[C@H](c2cc(C(F)(F)F)cs2)[C@@H](C(=O)Nc2cccc(F)c2F)C1=O [Compound 1377] | 20% | 40% | 40% | 60% | 50% | 80% | 50% | 70% | – | – | – | – | – | – | – | – | – | – | – | – | pest or weed control at 250 g/ha ([5]; 360 h, visually evaluated after 13 to 15 d, read-out: Plant response rating, Ducksalad (0 to 100 scale where 0 is no effect and 100 is complete control)): 90%; pest or weed control at 250 g/ha ([6]; 360 h, visually evaluated after 13 to 15 d, read-out: Plant response rating, Barnyardgrass (0 to 100 scale where 0 is no effect and 100 is complete control)): 60%; pest or weed control at 250 g/ha ([7]; 360 h, visually evaluated after 13 to 15 d, read-out: Plant response rating, Sedge, Umbrella (0 to 100 scale where 0 is no effect and 100 is complete control)): 0%; pest or weed control at 250 g/ha ([8]; 360 h, visually evaluated after 13 to 15 d, read-out: Plant response rating, Rice (0 to 100 scale where 0 is no effect and 100 is complete control)): 15%; pest or weed control at 500 g/ha ([9]; preemergence, 0 to 100 scale (0 no effect, 100 complete control), read-out: Plant response rating, Foxtail, Giant): 100%; pest or weed control at 125 g/ha ([9]; Preemergence, 0 to 100 scale (0 no effect, 100 complete control), read-out: Plant response rating, Foxtail, Giant): 100%; pest or weed control at 500 g/ha ([10]; preemergence, 0 to 100 scale (0 no effect, 100 complete control), read-out: Plant response rating, Barnyardgrass): 100%; pest or weed control at 125 g/ha ([10]; Preemergence, 0 to 100 scale (0 no effect, 100 complete control), read-out: Plant response rating, Barnyardgrass): 80%; pest or weed control at 500 g/ha ([11]; preemergence, 0 to 100 scale (0 no effect, 100 complete control), read-out: Plant response rating, Ryegrass, Italian): 50%; pest or weed control at 125 g/ha ([11]; Preemergence, 0 to 100 scale (0 no effect, 100 complete control), read-out: Plant response rating, Ryegrass, Italian): 20%; pest or weed control at 500 g/ha ([12]; preemergence, 0 to 100 scale (0 no effect, 100 complete control), read-out: Plant response rating, Pigweed): 40%; pest or weed control at 125 g/ha ([12]; Preemergence, 0 to 100 scale (0 no effect, 100 complete control), read-out: Plant response rating, Pigweed): 20%; pest or weed control at 500 g/ha ([13]; preemergence, 0 to 100 scale (0 no effect, 100 complete control), read-out: Plant response rating, Kochia): 80%; pest or weed control at 125 g/ha ([13]; Preemergence, 0 to 100 scale (0 no effect, 100 complete control), read-out: Plant response rating, Kochia): 70%; pest or weed control at 500 g/ha ([14]; preemergence, 0 to 100 scale (0 no effect, 100 complete control), read-out: Plant response rating, Ragweed): 30%; pest or weed control at 125 g/ha ([14]; Preemergence, 0 to 100 scale (0 no effect, 100 complete control), read-out: Plant response rating, Ragweed): 0%
2 | COc1cc([C@H]2CN(C)C(=O)[C@@H]2C(=O)Nc2ccccc2F)ccc1F [Compound 1298] | 0% | 0% | 0% | 20% | 0% | 0% | 0% | 0% | 80% | 50% | 0% | 15% | 90% | 90% | 80% | 90% | 0% | 0% | 0% | 0% | pest or weed control at 125 g/ha [13, 28]: 0%; pest or weed control at 500 g/ha [13, 29]: 80%; pest or weed control at 125 g/ha [14, 30]: 0%; pest or weed control at 500 g/ha [14, 31]: 20%
3 | CN1C[C@H](c2ccc(F)c(C#N)c2)[C@@H](C(=O)Nc2cccc(F)c2F)C1=O [Compound 1255] | – | 30% | – | 60% | – | 90% | – | 50% | 100% | 65% | 0% | 0% | 100% | 100% | 100% | 100% | 20% | 40% | 60% | 90% | pest or weed control at 125 g/ha [1, 32]: 0%; pest or weed control at 125 g/ha [2, 32]: 40%; plant injury at 125 g/ha [3, 32]: 60%; pest or weed control at 125 g/ha [4, 32]: 20%; pest or weed control at 125 g/ha [13, 28]: 60%; pest or weed control at 500 g/ha [13, 29]: 80%; pest or weed control at 125 g/ha [14, 30]: 20%; pest or weed control at 500 g/ha [14, 31]: 70%

From patent publication US12077503B2, “Substituted cyclic amides and their use as herbicides” (FMC CORPORATION, priority 2015, dated 2024)
